What was measured:
RAW264.7 cell = assay: CD80 expression on RAW264.7 (macrophage) cells by flow cytometry; assay type: cell-based
Protocol: TJM2010-5 can inhibit the up-regulation of RAW264.7 cell on costimulatory molecules CD80 caused by TLR stimulant (LPS, CpG), which means that TJM2010-5 can effectively block the TLR signal pathway, thus to inhibit the cells' immune reaction.
Raw264.7: Place the cells into a 48-pore plate, the number of cells is 9×10^5/pore, and 1 ml of medium system is added to each pore. Firstly, add TJM2010-5 of different concentration gradients to pre-incubate the cells for 2 h, then, add the CPG to get the final concentration of 40 ug/ml, and then incubate them in CO2 incubator at 37° C. for one night (12 h). Add the flow antibody FITC to label anti-CD80, CD86, and conduct detection with machine;
Add the flow antibody FITC to label anti-CD80, CD86, and conduct detection with machine.

mice with endoxemia = assay: endoxemia lethal experiment (LPS); assay type: in vivo; conditions: 250 mg/kg intragastric once a day for three days, then LPS ip; FIG. 15(a)
Protocol: Part one: Observe the effect of MyD88 inhibitor on mortality of mice with endoxemia. The mice will be divided into 2 groups randomly:
Vehicle control group and experiment group (TJM2010-5 treatment group), and 20 mice in each group. Where, the TJM2010-5 treatment group is provided with the intragastric administration of TJM2010-5 (0.5% CMC solvent, 25 mg/ml) at the dose of 250 mg/kg (200 μL per mouse); the vehicle control group is provided with the intragastric administration of 0.5% CMC, 200 μL per mouse. Apply the intragastric administration once a day, and for three days successively. And on day 3, after the […], provide the intraperitoneal injection of LPS 1 hour later, then, observe the survival condition every twelve hours, and for three days.

T cells = assay: activation of T cells (FIG. 3a); assay type: cell-based
[1] = tested on: skin of Balb/c mice transplanted to C57bl/6 mice; assay: mice skin transplantation model (graft survival, tolerance); assay type: in vivo; conditions: Balb/c skin to C57bl/6; TJM2010-5 150 mg/kg/d ip, MR1 200 μg/d ip
From the text: 2) Application of TJM2010-5 combined with costimulatory molecules inhibitor-anti-CD154 monoclonal antibody (MR1) in mice skin transplantation model
Five groups are set in the experiment, which are: allogeneic skin grafting control group (the rejection time reported in literature is 8-10 days), TJM2010-5 group, MR1 group and combination treatment group (TJM2010-5+MR1).
The specific handling methods as follows:
Allogeneic skin grafting CMC control group: take and transplant the skin of Balb/c mice to the back of C57bl/6 mice, and provide intraperitoneal injection of 0.5% CMC on day 0 to day 3, and day 5, 7, 9, 11, 13, 15 after the operation, the does is 200 μl/day; in the homogenic skin transplantation group: take and transplant the […] of C57bl/6 mice to the back of C57bl/6 mice, and no special treatment is provided after operation.
The TJM2010-5 Group: take and transplant the skin of Balb/c mice to the back of C57bl/6 mice, and provide intraperitoneal injection of the TJM2010-5 dissolved in 0.5% CMC on day 0 to day 3, and day 5, 7, 9, 11, 13, 15 after the operation, the does is 150 mg/kg/d;
The MR1 Group: take and transplant the skin of Balb/c mice to the back of C57bl/6 mice, and provide intraperitoneal injection of MR 1 on day 0, 1, 3, 7, 14 after the operation, the does is of 200 μg/d; […]

[2] = tested on: heart of Balb/c mice transplanted to C57bl/6 mice; assay: mice heart transplantation model (graft survival); assay type: in vivo; conditions: Balb/c heart to C57bl/6; 150 mg/kg intraperitoneal day 0 to day 6; survive up to 100 days
From the text: 1) Application of TJM2010-5 in Mice Heart Transplantation Model
Four groups are set in the experiment, which are: control group (conducting heart transplantation without any treatment), CMC group (vehicle control group), TJM2010-5 treatment group (effect detection group) and ciclosporinA (CsA) control group. The specific treatment methods as follows:
Control group: Take and transplant the heart of Balb/c mice to the abdominal cavity of C57bl/6 mice, and no special treatment is provided after operation;
CMC control group: Take and transplant the heart of Balb/c mice to the abdominal cavity of C57bl/6 mice, and provide intraperitoneal injection of sodium carboxymethyl cellulose (0.5% CMC) solution without TJM2010-5 on day 0 to day 6 after the heart transplantation, and the dose is 200 μl.
TJM2010-5 treatment group: Take and transplant the heart of Balb/c mice to the abdominal cavity of C57bl/6 mice, and provide intraperitoneal injection of TJM2010-5 dissolved in CMC on day 0 to day 6 after the heart transplantation, and the dose is 150 mg/kg.
CsA treatment group: Take and transplant the heart of Balb/c mice to the abdominal cavity of C57bl/6 mice, and provide intraperitoneal injection of CsA on day 0 to day 6 after the heart transplantation, and the dose is 15 mg/kg/day. […]

O=C(CCN1CCN(Cc2ccccc2)CC1)Nc1nc(-c2ccccc2)cs1 [TJM2010-5, 3-(4-benzylpiperazin-1-yl)-N-(4-phenylthiazol-2-yl) propanamide]
up-regulation of costimulatory molecule CD80 caused by TLR stimulant (LPS, CpG) (RAW264.7 cell; RAW264.7 cell): inhibit
expression of CD80 on macrophage surface (RAW264.7 cell; Raw264.7, 2 h pre-incubation, CPG 40 ug/ml, 12 h, FIG. 3d): concentration-dependent inhibition
death incurred by endotoxin (mice with endoxemia): effectively delay
lethality of endotoxin (mice with endoxemia): reduce
activation of T cells (T cells): dose-dependently reduce
effect on tolerance induction of the skin graft [1]: no obvious effect
heart allograft surviving up to 100 days [2]: 80%

Source: patent US20180318291A1, “USE OF AMINOTHIAZOLE MYD88 SPECIFIC INHIBITOR TJM2010-5” (WUHAN INNAMUNE PHARMACEUTICAL INC. LTD., priority 2015, published 2018)
